Data reported in patent publication US20190328869A1, “IMMUNOTHERAPEUTIC PRODUCT AND MDSC MODULATOR COMBINATION THERAPY” (Transgene SA, priority 2016, published 2019).

Tests used:
[1] = test system: HBV-Core-specific and HBV-Polymerase-specific T cells producing IFNγ; assay: IFNγ-ELISpot, HBV-specific T cell responses (Full pool Core, VSA, N13F) in HBV-persistent mice; format: in vivo, C57BL/6J mice; details: splenocytes, day 76; cutoff 50 spots/10^6 cells; sildenafil 20 mg/kg/day D31-59 or D48-76
Method: The capacity of splenocytes to produce IFNγ after different in vitro stimulations was measured by an IFNγ-ELISpot assay at day 76 post AAV2/8-HBV injection. HBV-specific responses were assessed using the HBV-Core peptides (A, Full pool Core), -polymerase specific peptide VSA (B) or N13F (C). Results are shown as the number of spots per 10^6 splenocytes. Each dot represents an individual mouse and thick line represents mean values for each group (+/−SEM). The horizontal gray line represents the technical cutoff value (50 spots/10^6 cells) above which values are considered as positive T cell responses. For groups with a positive T cell response, incidence of mice per group is indicated on the graph.
The capacity of splenocytes to produce IFNγ after different in vitro stimulations was measured by an IFNγ-ELISpot assay at day 76 post AAV2/8-HBV injection. HBV-specific responses were assessed using the HBV-Core peptides (Full pool Core), -polymerase specific peptide VSA or N13F. Shown are mean values of responder mice (>50 spots/10^6 cells) (mean, SEM). […]
The HBV persistent mice used in the study were described by Dion et al. (2013, J Virol, 87(10):5554-63). […] This allows the analysis of HBV-specific viral parameters (HBsAg, HBeAg, HBcAg and viremia) as well as immunological read-outs (ICS, ELISpot or humoral immune responses). […]

[2] = test system: tumor-recruited MDSCs; details: mouse tumor models; cited from earlier work
[3] = test system: CT26-MUC1 cells; assay: Survival in CT26 colon cancer tumor model; format: in vivo, BALB/c mice; details: 44 days post tumor implantation; MVATG9931 5×10^7 pfu day 2 and 9; sildenafil 80 mg/kg/day drinking water day 0 to 28; 12 mice per group

Compound: CCCc1nn(C)c2c(=O)nc(-c3cc(S(=O)(=O)N4CCN(C)CC4)ccc3OCC)[nH]c12 [sildenafil, 1-[[3-(4,7-dihydro-1-methyl-7-oxo-3-propyl-1H-pyrazolo[4,3-d]pyrimidin-5-yl)-4-ethoxyphenyl]sulfonyl]-4-methylpiperazine]
- HBV-specific IFNg producing T responses (Full pool core, VSA, N13F) [1]: did not show any IFNg producing T responses
- intratumoral T cell infiltration and activation [2]: enhance intratumoral T cell infiltration and activation
- mice still alive (survival) [3]: 20%
